Patent publication US8841413B2, “Antidiabetic compounds” (Cadila Healthcare Limited, priority 2006, dated 2014)
Read-outs that look alike come from different tables or passages of the source.

How the values were obtained:
[1] = target: T1, Human GLP-1 receptor (Homo sapiens, UniProt P43220); assay type: cell-based
T1 construct: The full-length cDNA was cloned in pcDNA3.1(+); expressed in transfected cells
Summary of the method: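 Stably transfected CHO cells expressing human GLP-1R, passages 9-25, exposed to compounds for 30 min at 37 °C. Lysed in ice-cold 0.1 N HCl; total cAMP by immunoassay, protein by micro BCA; expressed as percent of water vehicle control, mean±SD.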

[2] = target: DPP IV (Homo sapiens, UniProt P27487); assay: Stability against DPP IV enzyme; assay type: in vitro ADME; settings: 2 μM, 37° C.; for half-life: read-out: half-life (t1/2) with DPP-IV enzyme
Sequence of DPP IV (P27487 whole entry, species assumed): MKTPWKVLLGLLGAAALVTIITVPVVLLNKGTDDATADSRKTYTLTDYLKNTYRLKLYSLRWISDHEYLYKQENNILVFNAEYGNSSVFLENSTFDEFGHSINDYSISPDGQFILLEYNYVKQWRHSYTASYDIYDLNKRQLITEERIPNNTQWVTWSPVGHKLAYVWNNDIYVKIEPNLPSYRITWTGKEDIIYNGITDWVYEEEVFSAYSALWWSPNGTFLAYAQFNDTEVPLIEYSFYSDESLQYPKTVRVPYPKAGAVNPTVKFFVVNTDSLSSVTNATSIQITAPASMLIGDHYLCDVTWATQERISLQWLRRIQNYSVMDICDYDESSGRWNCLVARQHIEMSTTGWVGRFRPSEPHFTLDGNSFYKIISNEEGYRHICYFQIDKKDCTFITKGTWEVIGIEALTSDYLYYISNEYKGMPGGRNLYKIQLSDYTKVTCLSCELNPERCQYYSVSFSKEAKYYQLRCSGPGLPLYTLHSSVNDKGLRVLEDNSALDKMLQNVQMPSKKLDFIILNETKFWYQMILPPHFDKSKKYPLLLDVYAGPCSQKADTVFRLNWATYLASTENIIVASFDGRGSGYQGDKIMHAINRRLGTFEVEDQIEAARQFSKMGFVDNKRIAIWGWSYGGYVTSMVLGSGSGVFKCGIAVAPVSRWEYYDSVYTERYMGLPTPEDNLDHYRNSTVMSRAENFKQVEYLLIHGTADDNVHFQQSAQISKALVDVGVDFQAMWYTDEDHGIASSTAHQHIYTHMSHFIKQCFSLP
Procedure: (§1) Reactions were terminated by the addition of TFA/H2O (15 mL, 10% (v/v)). […] The column was equilibrated with TFA/H2O, at a flow rate of 1 mL/min. […] The absorbance was monitored at 206 nm using UV detector and peaks were collected manually prior to ESI-MS analysis.

[3] = Stability in human plasma; assay type: in vitro ADME; settings: 2 μM, 37° C.; for half-life: human, plasma, read-out: half-life (t1/2) in human plasma
Procedure: as §1

[4] = Stability in simulated gastric fluid; assay type: in vitro ADME; settings: 2 μM, 37° C., pH 1.5, pepsin; for half-life: simulated gi fluid, read-out: half-life (t1/2) in simulated gastric fluid
Procedure: as §1

[5] = Stability in simulated intestinal fluid; assay type: in vitro ADME; settings: 2 μM, 37° C., pH 7.5; for half-life: simulated gi fluid, read-out: half-life (t1/2) in simulated intestinal fluid
Procedure: as §1

[6] = Stability against liver microsomes; assay type: in vitro ADME, human; settings: 2 μM, 37° C.
Procedure: as §1

T1 sequence (P43220 24-463): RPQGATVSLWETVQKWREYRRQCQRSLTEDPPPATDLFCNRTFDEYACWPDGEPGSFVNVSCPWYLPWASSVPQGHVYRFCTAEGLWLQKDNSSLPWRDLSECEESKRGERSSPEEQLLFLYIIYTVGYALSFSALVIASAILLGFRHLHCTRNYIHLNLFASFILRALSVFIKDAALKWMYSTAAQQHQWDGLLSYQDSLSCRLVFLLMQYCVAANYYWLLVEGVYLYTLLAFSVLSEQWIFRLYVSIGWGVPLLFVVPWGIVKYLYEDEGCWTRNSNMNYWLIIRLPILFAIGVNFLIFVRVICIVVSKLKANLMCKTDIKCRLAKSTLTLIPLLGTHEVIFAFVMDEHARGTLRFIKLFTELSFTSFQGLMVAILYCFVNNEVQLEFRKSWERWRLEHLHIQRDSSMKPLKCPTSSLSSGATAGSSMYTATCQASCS

Row | Human GLP-1 R activity (cAMP release), % activity with respect to control ([1]; 1 nM test compound) | Human GLP-1 R activity (cAMP release), % activity with respect to control ([1]; 10 nM test compound) | Human GLP-1 R activity (cAMP release), % activity with respect to control ([1]; 100 nM test compound) | Human GLP-1 R activity (cAMP release), % activity with respect to control ([1]; 1 μM test compound) | Human GLP-1 R activity (cAMP release), % activity with respect to control ([1]; 10 μM test compound) | % degradation in 24 h when incubated with DPP-IV enzyme [2] | half-life [2] | % degradation in 24 h when incubated with human plasma [3] | half-life [3] | % degradation in 24 h when incubated with simulated gastric fluid [4] | half-life [4] | % degradation in 24 h when incubated with simulated intestinal fluid [5] | half-life [5] | half-life (t1/2) with liver microsomes [6] | % degradation in 24 h when incubated with liver microsomes [6] | SMILES
1 | 93 ± 0.11% | 99 ± 0.09% | 99 ± 0.06% | 99 ± 0.14% | 99 ± 0.19% | 00% | > 1440 min | 00% | > 1440 min | 00% | > 1440 min | 00% | > 1440 min | (5) h | 33% | CCc1cc(OC)ccc1-c1ccc(CC(NC(=O)[C@H](CC(=O)O)NC(=O)[C@H](CO)NC(=O)[C@@H](NC(=O)C(C)(Cc2ccccc2F)NC(=O)[C@@H](NC(=O)CNC(=O)[C@H](CCC(N)=O)NC(=O)C(C)(C)NC(=O)[C@@H](N)Cc2c[nH]cn2)[C@@H](C)O)[C@@H](C)O)C(=O)NC(Cc2ccc(-c3ccccc3C)nc2)C(N)=O)cc1 (single isomer, unassigned) [compound 30]
2 | 93 ± 0.10% | 99 ± 0.46% | 99 ± 0.41% | 99 ± 0.66% | 99 ± 0.03% | 00% | > 1440 min | 00% | > 1440 min | 00% | > 1440 min | 00% | > 1440 min | (5) h | 31% | CCc1cc(OC)ccc1-c1ccc(CC(NC(=O)[C@H](CC(=O)O)NC(=O)[C@H](CO)NC(=O)[C@@H](NC(=O)C(C)(Cc2ccccc2F)NC(=O)[C@@H](NC(=O)CNC(=O)[C@H](CCC(N)=O)NC(=O)C(C)(C)NC(=O)[C@@H](N)Cc2c[nH]cn2)[C@@H](C)O)[C@@H](C)O)C(=O)NC(Cc2ccc(-c3ccccc3F)cc2)C(N)=O)cc1 (single isomer, unassigned) [compound 31]
3 | 99 ± 0.06% | 99 ± 0.06% | 99 ± 0.08% | 99 ± 0.10% | 99 ± 0.12% | 00% | > 1440 min | 00% | > 1440 min | 00% | > 1440 min | 00% | > 1440 min | (5) h | 32% | CCc1cc(OC)ccc1-c1ccc(CC(NC(=O)[C@H](CC(=O)O)NC(=O)[C@H](CO)NC(=O)[C@@H](NC(=O)C(C)(Cc2ccccc2F)NC(=O)[C@@H](NC(=O)CNC(=O)[C@H](CCC(N)=O)NC(=O)C(C)(C)NC(=O)[C@@H](N)Cc2c[nH]cn2)[C@@H](C)O)[C@@H](C)O)C(=O)NC(Cc2ccc(-c3ccccc3C(F)(F)F)cc2)C(N)=O)cc1 (single isomer, unassigned) [compound 32]
4 | 99 ± 0.11% | 99 ± 0.13% | 99 ± 0.16% | 99 ± 0.06% | 99 ± 0.10% | 00% | > 1440 min | 00% | > 1440 min | 00% | > 1440 min | 00% | > 1440 min | (5) h | 33% | CCc1cc(OC)ccc1-c1ccc(CC(NC(=O)[C@H](CC(=O)O)NC(=O)[C@H](CO)NC(=O)[C@@H](NC(=O)C(C)(Cc2ccccc2F)NC(=O)[C@@H](NC(=O)CNC(=O)[C@H](CCC(N)=O)NC(=O)C2(NC(=O)[C@@H](N)Cc3c[nH]cn3)CC2)[C@@H](C)O)[C@@H](C)O)C(=O)NC(Cc2ccc(-c3ccccc3C)cc2)C(N)=O)cc1 (single isomer, unassigned) [compound 33]
5 | 99 ± 0.12% | 99 ± 0.08% | 99 ± 0.11% | 99 ± 0.12% | 99 ± 0.16% | 00% | > 1440 min | 00% | > 1440 min | 00% | > 1440 min | 00% | > 1440 min | (5) h | 32% | CCc1cc(OC)ccc1-c1ccc(CC(NC(=O)[C@H](CC(=O)O)NC(=O)[C@H](CO)NC(=O)[C@@H](NC(=O)C(C)(Cc2ccccc2F)NC(=O)[C@@H](NC(=O)CNC(=O)[C@H](CCC(N)=O)NC(=O)C2(NC(=O)[C@@H](N)Cc3c[nH]cn3)CC2)[C@@H](C)O)[C@@H](C)O)C(=O)NC(Cc2ccc(-c3ccccc3C)nc2)C(N)=O)cc1 (single isomer, unassigned) [compound 34]
6 | 99 ± 0.02% | 99 ± 0.26% | 99 ± 0.31% | 99 ± 0.60% | 99 ± 0.08% | 00% | > 1440 min | 00% | > 1440 min | 00% | > 1440 min | 00% | > 1440 min | (5) h | 26% | CCc1cc(OC)ccc1-c1ccc(CC(NC(=O)[C@H](CC(=O)O)NC(=O)[C@H](CO)NC(=O)[C@@H](NC(=O)C(C)(Cc2ccccc2F)NC(=O)[C@@H](NC(=O)CNC(=O)[C@H](CCC(N)=O)NC(=O)C2(NC(=O)[C@@H](N)Cc3c[nH]cn3)CC2)[C@@H](C)O)[C@@H](C)O)C(=O)NC(Cc2ccc(-c3ccccc3F)cc2)C(N)=O)cc1 (single isomer, unassigned) [compound 35]
7 | 96 ± 0.09% | 99 ± 0.07% | 99 ± 0.04% | 99 ± 0.01% | 99 ± 0.08% | 00% | > 1440 min | 00% | > 1440 min | 00% | > 1440 min | 00% | > 1440 min | (5) h | 35% | CCc1cc(OC)ccc1-c1ccc(CC(NC(=O)[C@H](CC(=O)O)NC(=O)[C@H](CO)NC(=O)[C@@H](NC(=O)C(C)(Cc2ccccc2F)NC(=O)[C@@H](NC(=O)CNC(=O)[C@H](CCC(N)=O)NC(=O)C2(NC(=O)[C@@H](N)Cc3c[nH]cn3)CC2)[C@@H](C)O)[C@@H](C)O)C(=O)NC(Cc2ccc(-c3ccccc3C(F)(F)F)cc2)C(N)=O)cc1 (single isomer, unassigned) [compound 36]
